Results on 21 compounds are retold here after PubChem BioAssay AID687023 (Broad Institute, 2013).

Each structure is given as a SMILES string. “And” between values parts separate entries of the source, which are not always exact repeats. Equal entries are not always repeated. The source made the active and inactive calls. The rule behind the calls is not given here. A value given as a limit tells only on which side of the number the result lay.

System in one assay: not listed separately
Briefly: HIV Env cell-cell fusion inhibitors, dose response, HIV entry, plate reader, dry powder (AID 687023). Conditions: Env-mediated cell-cell fusion, plate reader; at 1.2 µM (top of the series).
Regarding `Cc1noc(C)c1S(=O)(=O)Nc1cccc2c1O[C@H](CN(C)Cc1ccc(C(F)(F)F)cc1)[C@@H](C)CN([C@H](C)CO)C2=O`, the activity change, negative = inhibition is 53.5% (inactive).

With `Cc1ccc(-c2nnc3ccc4c(C(F)(F)F)cc(C(F)(F)F)nc4n23)cc1`, the activity change, negative = inhibition is 38.4% (inactive).

In the case of `Oc1ccc(CNc2ccccc2F)c2cccnc12`, the activity change, negative = inhibition was 33.1% (inactive).

Still in this assay, the particulars now being: Env-mediated cell-cell fusion, plate reader; at 3.8 µM (top of the series).
As for `CCOc1ccc(OCC)c(S(=O)(=O)NCc2ccncc2)c1`, the activity change, negative = inhibition was 30.3% (inactive).

In the case of `COC(=O)COc1ccc(S(=O)(=O)NCc2ccncc2)cc1`, the activity change, negative = inhibition is 62.5% (inactive).

The same assay, now with this note: Env-mediated cell-cell fusion, plate reader; at 35 µM (top of the series).
For the compound `COc1ccccc1CCNCc1ccc(OC)c(OCc2ccccc2)c1`, the activity change, negative = inhibition was -63.1% (inactive).

Consider `Cc1ccc(S(=O)(=O)Nc2cccc3c2O[C@@H](CN(C)Cc2ccc(Cl)c(Cl)c2)[C@@H](C)CN([C@H](C)CO)C3=O)cc1`, for which the activity change, negative = inhibition is -87.2% (inactive).

With `Cc1noc(C)c1S(=O)(=O)Nc1cccc2c1O[C@@H](CN(C)Cc1ccc(C(F)(F)F)cc1)[C@H](C)CN([C@H](C)CO)C2=O`, the activity change, negative = inhibition is 15.3% (inactive).

As to `Cc1noc(C)c1S(=O)(=O)Nc1cccc2c1O[C@@H](CN(C)Cc1ccc(C(F)(F)F)cc1)[C@H](C)CN([C@@H](C)CO)C2=O`, the activity change, negative = inhibition is 56% (inactive).

As for `N=C1Sc2ccccc2C2=NCCCN12`, the activity change, negative = inhibition was 2.5% (inactive).

As to `CCOc1ccc(S(=O)(=O)NCc2ccccn2)cc1`, the activity change, negative = inhibition was 34.6% (inactive).

For the compound `Cc1ccc(C)n1-c1ccc(C(=O)O)c(O)c1`, the activity change, negative = inhibition was 0.014% (inactive).

Another assay concerns Env-mediated cell-cell fusion, plate reader. The description is as above.
Conditions: not given
By AC50 is commonly meant the midpoint of the concentration-response curve, whichever way the signal moves. With `COc1ccc(-c2nn(C)c(=O)c3ccccc23)cc1NC(=O)Cn1nc(C)c2ccccc2c1=O`, the AC50 is 4.03 µM and 23.5 µM.

With `COc1ccc(CC(=O)Nc2cccc(S(=O)(=O)N3CCCCCC3)c2)cc1OC`, the AC50 is 3.95 µM and 1.88 µM.

In the case of `CCCOc1ccc(S(=O)(=O)NCc2ccncc2)c2ccccc12`, the AC50 is 0.945 µM and 2.88 µM.

With `CCCn1nc(C(=O)Nc2ccc3nc(N4CCOCC4)sc3c2)ccc1=O`, the AC50 was 4.24 µM and 9.79 µM.

Take `CCOc1ccc(S(=O)(=O)NC(C)c2ccncc2)cc1` (stereo unspecified): the AC50 was 1.16 µM and 2.43 µM.

Take `Nc1nonc1C(=O)NCCNCc1c(OCc2ccccc2F)ccc2ccccc12`: the AC50 is 9.38 µM and 3.61 µM.

Take `CC(C)(C)c1ccc(-c2noc(CCC(=O)NCC3CCCO3)n2)cc1` (stereo unspecified): the AC50 is 0.0954 µM and 0.484 µM.

Regarding `CC1(C)CC(NC(=O)C(=O)Nc2ccc(Cl)cc2)CC(C)(C)N1`, the AC50 is > 70 µM (inactive) and 27.4 µM.

With `O=C(CCc1ccc(S(=O)(=O)N2CCOCC2)cc1)Nc1nc(COc2ccccc2)cs1`, the AC50 was 3.51 µM and 8.07 µM.
